Molecules are shown by their SMILES. Like-named read-outs stand apart in the source and are kept apart here. Some results are limits rather than exact numbers.

Here are results for 21 molecules from patent US20110117069A1, “METHOD FOR ACTIVATING REGULATORY T-CELLS” (IMTM GMBH, priority 2007, published 2011).

Experiment [1] deals with APN. The following applies: cited from earlier work; for Ki: α-Keto amides.
The target in experiment [2] is LAP (Homo sapiens, UniProt P28838). The following applies: α-Aminoboric acids; cited from earlier work.
Chain of LAP (P28838 whole entry): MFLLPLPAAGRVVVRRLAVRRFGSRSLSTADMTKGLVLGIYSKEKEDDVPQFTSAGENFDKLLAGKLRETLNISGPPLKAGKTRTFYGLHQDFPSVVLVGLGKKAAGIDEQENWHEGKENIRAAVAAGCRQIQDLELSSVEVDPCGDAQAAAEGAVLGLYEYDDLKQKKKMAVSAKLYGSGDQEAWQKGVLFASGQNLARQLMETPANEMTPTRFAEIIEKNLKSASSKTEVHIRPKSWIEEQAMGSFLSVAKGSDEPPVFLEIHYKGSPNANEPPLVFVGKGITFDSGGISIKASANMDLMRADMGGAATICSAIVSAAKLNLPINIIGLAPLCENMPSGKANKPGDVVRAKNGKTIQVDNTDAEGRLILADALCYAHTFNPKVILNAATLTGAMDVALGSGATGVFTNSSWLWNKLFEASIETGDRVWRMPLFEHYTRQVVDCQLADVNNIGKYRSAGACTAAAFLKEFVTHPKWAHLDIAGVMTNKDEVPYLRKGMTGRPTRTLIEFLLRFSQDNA
The test system of experiment [3] is human regulatory T-cells (CD4+CD25+). Briefly: Co-culture of human effector cells (CD4+CD25-) and regulatory T-cells, proliferation by tritium thymidine inclusion. It counts as cell-based. As to conditions: for effect of the inhibitor on suppressive capacity of the Treg cells: 120 hours co-culture, anti-CD3. The text has this: Mononuclear cells were obtained from the peripheral blood of healthy donors by means of density-gradient centrifugation. The isolation of regulatory T-cells occurred by means of a two-stage magnetic separation:
In a first step CD4^+ T-cells were recovered by depletion of all CD4-negative cells [CD4 separation kit, Miltenyi Biotech, Bergisch-Gladbach, Germany]. The purity achieved regularly amounted to >95% CD4^+ T-cells.
In a second step CD4^+CD25^+ regulatory T-cells were in turn isolated from this population by magnetic column separation using CD25 marking [anti-CD25 MicroBeads, Miltenyi Biotech].
The CD4^+CD25^− fraction served as effector cell control.
The functional capacity of the regulatory T-cells was tested in a special co-culture. For this, 20 000 effector cells (CD4^+CD25^−) and regulatory T-cells (CD4^+CD25^+) in total were respectively cultivated in different quantitative ratios to one another over a period of 120 hours in microtest plates. A solid phase-bound anti-CD3 antibody [UCHT1, 0.25 μg/well] was used as activator of the T-cell stimulation.
The degree of proliferation of the cultivated cells was analysed on the basis of the DNA synthesis rate by means of tritium thymidine inclusion over 24 hours [n=5].
The degree of proliferation of the cultivated cells was analysed on the basis of the DNA synthesis rate by means of tritium thymidine inclusion over 24 hours [n=3].
Mononuclear cells were obtained from the peripheral blood of healthy donors by means of density-gradient centrifugation. A T-cell separation followed using nylon pad adherence.
The isolation of regulatory T-cells occurred by means of a two-stage magnetic separation:
The degree of proliferation of the cultivated cells was analysed on the basis of the DNA synthesis rate by means of tritium thymidine inclusion over 24 hours [n=10].

The target in experiment [4] is Argininyl AP (Homo sapiens, UniProt Q9H4A4). The following applies: α-Keto amides, cited from earlier work.
Chain of Argininyl AP (Q9H4A4 whole entry): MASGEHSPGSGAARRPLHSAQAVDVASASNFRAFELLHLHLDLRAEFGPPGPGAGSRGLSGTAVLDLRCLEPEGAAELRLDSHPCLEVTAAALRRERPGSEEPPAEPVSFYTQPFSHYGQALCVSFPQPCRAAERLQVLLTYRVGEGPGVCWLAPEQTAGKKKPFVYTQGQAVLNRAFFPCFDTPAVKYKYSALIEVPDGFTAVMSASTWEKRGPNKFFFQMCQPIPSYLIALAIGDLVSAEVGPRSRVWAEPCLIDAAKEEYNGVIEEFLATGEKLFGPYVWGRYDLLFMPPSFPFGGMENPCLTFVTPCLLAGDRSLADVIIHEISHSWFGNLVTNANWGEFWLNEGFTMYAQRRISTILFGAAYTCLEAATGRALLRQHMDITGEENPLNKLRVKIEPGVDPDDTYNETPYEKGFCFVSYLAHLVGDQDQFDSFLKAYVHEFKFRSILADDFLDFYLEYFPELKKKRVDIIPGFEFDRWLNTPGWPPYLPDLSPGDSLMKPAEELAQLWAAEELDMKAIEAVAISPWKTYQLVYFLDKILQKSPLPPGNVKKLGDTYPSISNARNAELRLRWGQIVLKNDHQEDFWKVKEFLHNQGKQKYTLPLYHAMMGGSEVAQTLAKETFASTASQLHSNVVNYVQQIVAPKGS
Experiment [5] addresses Cytosolic AP. The following applies: α-Keto amides; cited from earlier work.
The test system of experiment [6] is colitis in Balb-c mice. Briefly: DSS colitis model in mice, disease activity index (DAI). It counts as in vivo. The following applies: single intravenous application on day 3, phebestin 0.5 mg/kg or 1 million cells/animal, up to 48 hours after application. From the text:
Colitis was triggered in Balb-c mice by the oral application of 3% dextran sodium sulphate solution (DSS). The degree of severity of the illness was established on the basis of a disease activity index (DAI). This consisted of the daily documentation of body weight loss, stool consistency, rectal bleeding, food and water intake, and is defined in the publication “Bank, U., Heimburg, A., Helmuth, M., Stefin, S., Lendeckel, U., Reinhold, D., Faust, J., Fuchs, P., Sens, B., Neubert, K., Täger, M., Ansorge, S.; Triggering endogenous immunosuppressive mechanisms by combined targeting of dipeptidyl peptidase IV (DPIV/CD26) and aminopeptidase N (APN/CD13)—A novel approach for the treatment of inflammatory bowel disease; International Immunopharmacology 6: 1925-1934 (2006)”.
Regulatory T-cells from peripheral venous blood were recovered in parallel by means of density-gradient centrifugation and magnetic separation using CD25 Microbeads.
On day 3, either the aminopeptidase N inhibitor phebestin (0.5 mg/kgKG), untreated CD4^+CD25^+ Treg cells (1 million cells/animal) or activated CD4^+CD25^+ Treg cells (1 million cells/animal) were applied once intravenously.
The activation of the Treg cells occurred ex situ using the method according to the invention by incubating the Treg cells for 45 minutes in the presence of phebestin [500 μg/ml].

Experiment [7] concerns murine regulatory T-cells (CD4+CD25+). As to the kind of experiment: Co-culture of murine effector cells (MNC-CD25-) and regulatory T-cells, proliferation by tritium thymidine inclusion. As to conditions: 1.0 μM, after 5 days of co-culture, anti-CD3/anti-CD28. The experiment is classed as cell-based, mice. The protocol:
Mononuclear cells (MNC) were obtained from the peripheral blood of healthy mice by means of density-gradient centrifugation. The isolation of regulatory T-cells occurred using CD25 marking [anti-CD25 MicroBeads, Miltenyi Biotech]. The CD25^− MNC fraction served as effector cell control.
The functional capacity of the regulatory T-cells was tested in a special co-culture. For this, 20 000 effector cells (MNC-CD25^−) and regulatory T-cells (CD4^+CD25^+) in total were respectively cultivated in different quantitative ratios to one another over a period of 120 hours in microtest plates. The T-cell stimulation occurred by adding anti-CD3/anti-CD28 [1 μg/ml].
The degree of proliferation of the cultivated cells was analysed on the basis of the DNA synthesis rate by means of tritium thymidine inclusion over 24 hours [n=4].

Setting [8] is: α-Aminoboric acids, read-out: IC50, μM (APN).
Setting [9] is: β-Aminothiols table, read-out: IC50 (nM) APN.
[10] abbreviates: N-Phenylphthalimides and -homophthalimides, enzyme not given, alanyl-aminopeptidase, read-out: IC50.

By Ki is commonly meant a dissociation constant, usually derived from enzyme kinetics or from competition with a known ligand. Consider `CC(C)CCNC(=O)[C@@H](O)[C@H](N)Cc1ccccc1`, for which the Ki in experiment [1] was 20 µM. As a reminder, the IC50 is the point on the concentration scale where inhibition reaches its midpoint. Take `CC(C)C[C@@H](N)B1OC(C)(C)C(C)(C)O1`: the IC50 in experiment [2] was 0.25 µM; in experiment [1] (setting [8]), 0.074 µM. Take `NC(CS)Cc1ccc(O)cc1` (centres unmarked): the IC50 in experiment [1] (setting [9]) is 0.045 µM. As to `CCCCC[C@H](CC(=O)NO)C(=O)N[C@H](C(=O)N1CCC[C@H]1CO)C(C)C` [actinonin], the “effect of the inhibitor on suppressive capacity of the Treg cells” value in experiment [3] (physiologically relevant range of 10:1 effector cells to Treg cells (10% Treg)) is “significant intensification of the suppressive capacity”; in experiment [3] (ratio of 1:1 of effector cells to Treg cells (50% Treg)), “no reliable effect”.

`NC(CS)COCc1ccccc1` (centres unmarked): the IC50 in experiment [1] (setting [9]) is 0.056 µM. For the molecule `CC(C)C[C@@H](N)B(O)O`, the IC50 in experiment [2] is 0.25 µM.

Turning to `NC(CS)CC1CCCCC1` (centres unmarked), the IC50 in experiment [1] (setting [9]) is 0.045 µM. For `CCc1cccc(CC)c1-n1c(=O)[nH]c2ccccc2c1=O` [PAQ22, 3-(2,6-diethylphenyl-)quinazoline-2,4(1H3H)-dione], the “induction of suppressive capacity of the regulatory T-cells” value in experiment [3] (10% and 5% Treg cell components, after 5 days of co-culture) is on record as “induced the suppressive capacity”. Turning to `CC(C)CCNC(=O)C(=O)C(N)CC(C)C` (racemic), the inhibition constant (Ki) in experiment [1] ((R) isomer) was 18.6 µM; in experiment [1] ((S) isomer), 10.5 µM; in experiment [4] ((R) isomer), 6.5 µM; in experiment [4] ((S) isomer), 3.2 µM. For the molecule `CC1(C)OB([C@H](N)Cc2ccccc2)OC1(C)C`, the figures for the IC50 in experiment [2] and in experiment [1] (setting [8]) were 0.2 µM and 0.05 µM, respectively.

For the molecule `C[C@@H](N)B1OC(C)(C)C(C)(C)O1`, the IC50 in experiment [2] is 0.35 µM; in experiment [1] (setting [8]), 0.07 µM. With `CCOC(=O)[C@H](N)CS`, the IC50 in experiment [1] (setting [9]) was 0.35 µM.

As for `CC(C)c1cccc(C(C)C)c1N1C(=O)Cc2c(N)cccc2C1=O`, the IC50 in experiment [1] (setting [10]) was 5.4 µM. On to `CSc1ccccc1N1C(=O)Cc2ccccc2C1=O`, for which, in experiment [1] (setting [10]), the IC50 is 0.9 µM.

As for `CC(C)CCNC(=O)C(=O)[C@@H](N)Cc1ccccc1`, the results for the Ki in experiment [1], in experiment [5] and in experiment [4] were 2.5 µM, 1 µM and 1.5 µM, respectively. For the molecule `CC(C)CCNC(=O)[C@@H](O)[C@H](N)CC(C)C`, the Ki in experiment [1] was 24 µM; in experiment [4], above 300 µM. `CC(C)c1cccc(C(C)C)c1N1C(=O)Cc2c(O)cccc2C1=O`: the IC50 in experiment [1] (setting [10]) was 4.3 µM. On to `CC(C)[C@H](NC(=O)[C@@H](O)[C@H](N)Cc1ccccc1)C(=O)N[C@@H](Cc1ccccc1)C(=O)O` [phebestin], for which, in experiment [6], the “activity of the disease (disease activity index) / clinical symptoms” value is listed as “no effect”. Further, the “induction of suppressive capacity of the regulatory T-cells” value in experiment [7] is given as “induced the suppressive capacity of the regulatory T-cells to a significant degree”. For `CC(C)(C)SCC(N)CS` (centres unmarked), the IC50 in experiment [1] (setting [9]) is 0.04 µM. Consider `N[C@H](Cc1ccccc1)B1OCCCO1`, for which the concentration for half-maximal inhibition (IC50) in experiment [2] is 0.2 µM.

`NC(CS)c1ccccc1` (centres unmarked): the IC50 in experiment [1] (setting [9]) is 0.025 µM.
